Source: publication PMC10630888, “Nuclear ERK1/2 signaling potentiation enhances neuroprotection and cognition via Importinα1/KPNA2” (EMBO Molecular Medicine, 2023)
Several values for one entry are separate records, joined by “and”; a condition that tells them apart may be missing. Equal values may be shown once.

What was measured:
[1] = system: p-ERK1/2 in DARPP-32+ neurons; experiment: p-ERK1/2 in DARPP-32+ iPSC-derived HD MSNs; type: cell-based, human; conditions: for p-ERK1/2 in DARPP-32+ neurons (Fig 5 panel e): individual replicates
Method: The human induced pluripotent stem cell line CS09iHD109‐n1 (herein referred to as Q109N1) was originally generated from a human fibroblast line ND39258 (RRID:CVCL_ZC78) with an expanded HTT allele initially containing 109 pure CAG trinucleotides, and the isogenic control lines used were derived by CRISPR gene‐edit to reduce the CAG repeat length to 20 repeats (Mattis et al, [2015]). IPSCS were cultured on hESC‐qualified Matrigel (Corning) in E8‐Flex medium (Thermo Fisher) and passaged with RelesR (Stem Cell Technologies) according to the manufacturer's instructions. For neural differentiation iPSCS were grown to 70% confluency and then treated with 10 μM Y‐27632 (Tocris) for 1 h before harvesting by dissociation to a single cell suspension using accutase (Sigma). IPSCs were replated onto fresh Matrigel‐coated plates at a split ratio of 1:2, in E8‐Flex medium containing 10 μM Y‐27632. After overnight culture, IPSCs at 80–90% confluency were washed with PBS pH 7.4 (Gibco) and then switched to neural induction medium (Advanced DMEM/F12 (1:1) supplemented with 2 mM GlutamaxTM (Gibco), 2% Neurobrew without vitamin A (Miltenyi), 10 μM SB431542, 1 μM LDN 193189 (both Stem Cell Technologies), and 1.5 μM IWR1 (Tocris)). Medium was changed daily until day 8, when cells were passaged 1:2 by cell dissociation with Accutase for 5 min at 37°C and replated on Matrigel® coated plates in LIA medium containing (Advanced DMEM/F12 (1:1) supplemented with 2 mM GlutamaxTM, 2% Neurobrew without vitamin A, 0.2 μM LDN 193189, 1.5 μM IWR1, and 20 ng/ml Activin A (Peprotech)). At day 16, cells were plated for neuronal differentiation according to (Telezhkin et al, [2016]). […]
Images were acquired using a confocal microscope (Zeiss LSM710) under a 20× objective and analyzed with ImageJ software.

[2] = system: cleaved caspase-3; experiment: Cleaved caspase-3 in dentate gyrus of Tg2576 mice; type: in vivo, mouse; conditions: for cleaved caspase-3 in dentate gyrus (Fig 5 panel l): individual animals
[3] = system: pAcH3; experiment: Striatal pAcH3 immunofluorescence 1 h after single injection; type: in vivo, mouse; conditions: single injection 20 mg/kg i.p., individual mice
Method: Immunofluorescence was performed as described in Papale et al ([2016]). Briefly, 1 h after blocking in 5% normal goat serum, slices were incubated overnight at 4°C with the following primary antibodies: anti‐phospho (Ser10)‐acetylated (Lys14) histone H3 (1:1,000, Millipore), anti‐phospho‐S6 ribosomal protein (Ser235/236) (1:200, Cell Signaling Technology) anti‐phospho‐S6 ribosomal protein (Ser240/244) (1:200, Cell Signaling), cleaved caspase‐3 (1:200, Cell Signaling Technology), anti‐mutant Huntingtin (1:100, Developmental Studies Hybridoma Bank, University of Iowa, #MW8), and NeuN (1:1,000, Millipore). Corresponding secondary antibodies (Alexa Fluor 546 conjugated anti‐mouse (1:200, Thermo Fisher Scientific), Alexa Fluor 488 conjugated anti‐rabbit (1:500, Thermo Fisher Scientific) and Pacific Blue goat anti‐mouse (1:200, Thermo Fisher Scientific) were incubated at room temperature for 1 h. Sections stained for mutant Huntingtin were incubated with DAPI for 20 min. Sections were subsequently mounted with fluorescent mounting medium (DAKO). Single and double‐labeled images ([…]) were obtained at 40× magnification from the striatum using a laser scanning confocal microscope (Leica SP2) equipped with the corresponding lasers and appropriate filter sets to avoid the crosstalk between the fluorochromes.
In ex‐vivo and in‐vivo immunofluorescence experiments, the number of p‐S6 or p‐AcH3 immunoreactive neurons among NeuN‐positive neurons was counted in 2–3 consecutive striatal sections per mouse in four fields per section. Caspase 3‐positive cells were quantified among NeuN‐positive neurons in each slide and expressed as percentage (ratio between caspase‐3‐positive cells and total NeuN‐positive neurons) for each field acquired through the slide. The number of cells showing mutant Huntingtin inclusions were expressed as a percentage of mutant Huntingtin‐positive cells among DAPI‐positive cells.

Sequence: GRKKRRQRRRPPQGGGGGEPRRTEGVGPGVPGEVEMVKGQPFDV [RB5, six D-amino acids, acetylated N-terminus]
- p-ERK1/2 in DARPP-32+ neurons (Fig 5 panel e) ([1]; CTR iPSC-derived MSNs): 32.3403 and 42.5 and 40 and 34.7652 and 35.2993
- p-ERK1/2 in DARPP-32+ neurons ([1]; HD and isogenic control iPSC-derived MSNs, 50 μM, 30 min): upregulated
- p-ERK1/2 in DARPP-32+ neurons (Fig 5 panel e) ([1]; HD iPSC-derived MSNs): 36.3889 and 24.1289 and 36.2319 and 31.1704 and 41.2043 and 24.6269
- Preapoptotic phenotype measured by caspase-3 ([2]; Tg2576 mice, 7 months old, 20 mg/kg i.p. for 7 days): significantly reduced the preapoptotic phenotype
- cleaved caspase-3 in dentate gyrus (Fig 5 panel l) ([2]; Tg2576 mice): 0.77 and 0.91 and 0.62 and 1.34 and 0.79 and 1.19 and 1.3
- cleaved caspase-3 in dentate gyrus (Fig 5 panel l) ([2]; WT mice): 0.76 and 0.9 and 0.39 and 0.92 and 0.68 and 0.62 and 0.56 and 0.58 and 0.59
- pAcH3 positive neurons in striatum ([3]; ERK1+/+ (WT) mice): enhanced pERK and pAcH3 in WT
- pAcH3 positive neurons in striatum ([3]; ERK1-/- mice): not in ERK1 KO mice
- pAcH3 positive neurons in striatum ([3]; 1 h): selectively activated
